These are literature values, as cited in patent US10494420B2, “Mast cell stabilizers for treatment of hypercytokinemia and viral infection” (priority 2016, dated 2019).

SMILES strings stand for the structures.

One data set has as its system H5N1 Influenza Virus. Particulars: mouse, in vivo.
For data set [1] the following is noted: intranasal delivery versus any other route, rabbits.

With `CN1CCC(=C2c3ccccc3CC(=O)c3sccc32)CC1` [ketotifen], in the data set with H5N1 Influenza Virus, the impact on survival entry is “increased when the compounds were combined” and the survival of mice result is “increase survival of mice”. Further, the “mast cell degranulation and release of mediators (histamine, TNF-α, prostaglandins, leukotrienes, interleukins)” value with mast cells is “inhibit mast cell degranulation”. For the same compound, the bioavailability result in data set [1] was “more bioavailable using intranasal delivery”.
